Test results as given in article PMC11029812, “Liver-targeted polymeric prodrugs delivered subcutaneously improve tafenoquine therapeutic window for malaria radical cure” (Science Advances, 2024).
Like-named read-outs stand apart in the source and are kept apart here.

Key:
[1] = Tissue pharmacokinetics of released TQ and its metabolites in liver, plasma and urine (LC-MS/MS); assay type: in vivo, BALB/c mice
P. berghei = P. berghei luciferase and blood parasitemia model of causal prophylaxis; assay type: in vivo
Description: Efficacy studies in the P. berghei mouse model of causal prophylaxis were conducted at the Walter Reed Army Institute of Research, Experimental Therapeutics Branch as previously described ([46]).
Luciferase-expressing P. berghei ANKA sporozoites were obtained from laboratory-reared female Anopheles stephens mosquitoes as previously described ([46]). Sporozoites were recovered by the method of Li et al. ([62]) and quantitated using a hemocytometer. Sporozoites isolated from the same batch of mosquitoes were inoculated into mice on the same day to control biological variability in sporozoite preparations. Each animal was inoculated IV in the tail vein with approximately 10,000 sporozoites suspended in 0.1-ml volume on day 0.
Age-matched, 40 young adult (7-week-old) female C57BL/6 albino mice were purchased from Charles River Laboratories (Frederick, MD). On arrival, animals were acclimated for 7 days in quarantine. Mice were housed and maintained at a temperature range of 64° to 79°F, 34 to 68% relative humidity, and a 12-hour light/dark cycle. Food and water were provided ad libitum. Animals were fed a standard rodent maintenance diet. All animal use, care, and handling was conducted under an IACUC-approved animal use protocol in an Association for Assessment and Accreditation for Laboratory Animal Care International (AAALACi)–accredited facility with a Public Health Services Animal Welfare Assurance and in compliance with the Animal Welfare Act and other federal statutes and regulations relating to laboratory animals.
TQ was dissolved at a stock concentration of 1 mg/ml in 25% hydroxy-β-cyclodextrin acidified to pH 5 with acetic acid and diluted in DPBS for final dosing solutions. Polymers for parenteral administration were prepared in DPBS at the final dosing concentrations. All drug concentrations were calculated per the free base molecular weights of TQ. TQ parent compounds were administered intragastrically via an intragastric feeder tube. Vehicle groups (0.1 ml of DPBS) and polymer groups were administered SC in the right flank. Free TQ, vehicle, and polymers were given as a single dose on day −1. In this model, the pSVCTQ doses studied were 5.0, 7.5, or 10 mg/kg TQ equivalent.
Whole-body IVIS imaging of bioluminescence activity from luciferase-expressing P. berghei–infected mice was performed using a PerkinElmer IVIS Spectrum. Mice were evaluated at 24, 48, and 72 hours after sporozoite inoculation to determine liver- and blood-stage malaria infection. Mice received luciferin (150 mg/kg, Gold Biotechnology, St. Louis, MO) intraperitoneally in a maximal volume of 150 μl. Three minutes after luciferin administration, the mice were anesthetized with inhaled isoflurane and positioned ventral side up in the IVIS Spectrum on a 37°C platform. The mice continued to receive isoflurane through nose cone delivery. The camera exposure times used were 1 or 5 min for the 24-, 48-, and 72-hour time points with f-stop = 1, and the large binning setting was chosen. Quantitative analysis of bioluminescence emitted from whole bodies or […] (ROI) were determined by measuring the luminescence signal intensity in photons per second using the ROI settings of the Living Image 3.0 software. The ROI, expressed in total flux of photons, was set to measure the abdominal area at the location of the liver from whole-body imaging ([62]). The data were generally found to fit a normal distribution. Means and SDs of photon measurement were calculated.
On days 5 to 31 after infection, mice were analyzed for blood-stage infections by quantitation of malaria parasites in erythrocytes by flow cytometry. Blood (3 μl) from the mouse tail was collected directly into 0.3 ml of 1% heparinized isotonic buffer (PBS saline). After addition of 1 ml of 0.04% of glutaraldehyde for fixation, the samples were incubated at 4°C for 60 min. Cells were centrifuged at 450g for 5 min. […]

[2] = Hemotoxicity in humanized G6PD deficiency mouse model; assay type: in vivo, human RBCs engrafted in NOD/SCID mice; conditions: female, NOD/SCID (NOD.CB17-Prkdcscid/J), mouse, in vivo; curve fit of Fig. 4B; single dose; pSVCTQ SC, TQ oral; day 7; read-out: Dose resulting in 50% hemolysis (TD50)
Description: (§1) Following procedures as previously published ([46]), hemotoxicity studies using huRBC engraftments were conducted in mice.
(§2) Female (8 to 9 weeks) NOD.CB17-Prkdcscid/J [nonobese diabetic severe combined immunodeficient (NOD/SCID)] mice were purchased from The Jackson Laboratory (Bar Harbor, ME). The animals were housed in a cage maintained in a specific pathogen–free animal facility and were acclimated for 1 week in the facility before initiation of experimental procedures. Sterile food and water were provided ad libitum throughout the study as previously described ([64]). All animal studies were performed under IACUC-approved protocols and adhere to the principles stated in the Guide for the Care and Use of Laboratory Animals ([100]).
(§3) Polymer solutions for SC administration were prepared in DPBS at the final dosing concentrations. All drug concentrations were calculated per the free base molecular weights of TQ. The TQ parent compound was administered intragastrically via an intragastric feeder tube. Polymers and vehicle were administered SC in the right flank. TQ, pSVCTQ, and vehicle were given as a single dose on day 0. In this model, the TQ dose studied was 10 mg/kg; pSVCTQ was tested at doses of 2.5, 5.0, or 10 mg/kg TQ equivalent.
(§4) The percentage of huRBCs at the end of this period was analyzed by flow cytometry to evaluate glycophorin A (huRBCs) and Ter119 (mouse RBCs) circulating in peripheral blood. […] The G6PD-deficient huRBC NOD/SCID mice were dosed with pSVCTQ or parent drug prepared as described above, with three to four mice per group. On days 4 and 7 following dosing, huRBC levels were assessed again by flow cytometry (glycophorin^+Ter119^−), along with the percentage of murine reticulocytes (CD71^+Ter119) as an additional marker of hemolytic toxicity. Mice were euthanized on day 7 following initiation of treatment.
(§5) Microsoft Excel and GraphPad Prism were used throughout the PK analysis to process the data, calculate pharmacokinetic parameters, and yield statistical information. A linear regression model was produced using the least squares fitting method with 1/x^2 scaling for the assay calibrators. […] For the G6PD deficiency model, data analysis was performed using GraphPad Prism (GraphPad Software). […] An F test comparing the two dose-response curves was also run. For all other work, a combination of Microsoft Excel and GraphPad Prism was used.

G6PD-deficient huRBCs = test: as above; assay type: in vivo, human RBCs engrafted in NOD/SCID mice; conditions: single dose day 0; pSVCTQ SC, TQ oral; A− G6PD-deficient donor
Description: as §1, §2, §3, §4, §5

[3] = design: method as in PMID 28749773; conditions: G6PD-deficient cohort, cited from earlier work
[4] = Polymer biodistribution (IVIS imaging) and liver hepatocyte localization (histology); assay type: in vivo; conditions: mice
Description: Mice were dosed SC with rhodamine-labeled pSVCTQ at the dose of equivalent 25 mg/kg TQ, which were then euthanized at 8 hours after injection. Selected organs, including liver, kidneys, lungs, spleen, heart, and brain, were harvested and washed with PBS before imaging studies (IVIS) using fluorescent mode at (excitation/emission: 530/585 nm), Caliper Xenogen IVIS (PerkinElmer, Hopkinton, MA). The radiant efficiency emitted from the organs in each mouse was subsequently quantified using Xenogen Living Image software. Mice treated with PBS served as controls (fig. S12). Three mice were included in each group.
Rhodamine-labeled pSVCTQ was formulated in PBS and SC administered in mice at a dose of 25 mg/kg TQ equivalent. Mice receiving PBS served as controls. The liver was harvested at 8 hours after injection and immediately fixed in 10% neutral buffered formalin at 4°C for 4 hours. After washing three times in cold PBS, the liver tissue was sunk in 15% sucrose solution for 24 hours and then in 30% sucrose solution for 24 hours at 4°C. The sucrose solution was prepared in DPBS (1×, with Mg^2+ and Ca^2+). The liver tissue was then blotted with paper tissue and embedded in an optimal cutting temperature compound. The sample was frozen in prechilled isopentane in liquid nitrogen and stored at −80°C. The 5-μm-thick sections were prepared using CryoStat at −20°C. Alexa Fluor 488 phalloidin was diluted 1:50 in PBS and used to counterstain the sections for 1 hour at room temperature (RT) to visualize cell outlines. The cell nuclei were counterstained with DAPI (blue) for 5 min at RT. Sections were imaged using an epi-fluorescent microscope (Nikon Eclipse 90i and Hamamatsu C10600 Camera at 20× magnification) using GFP-B HYQ (excitation/emission: 450/550 nm) Texas red HYQ (excitation/emission: 535/580 nm) and ultraviolet illumination (excitation/emission: 350/470 nm).

[5] = female, BALB/c, mouse, in vivo, po, 10 mg/kg
[6] = 8 hours after SC 25 mg/kg TQ equivalent

For `COc1cc(C)c2c(Oc3cccc(C(F)(F)F)c3)c(OC)cc(NC(C)CCCN)c2n1` (stereo not shown) [TQ, tafenoquine], the AUC [1, 5] was 22400 ng·h/mL, the “AUC, liver” value [1, 5] was 1404 μg/g liver*hour and the Cmax [1, 5] was 380 ng/mL. The “Cmax, liver” value [1, 5] was 17 μg/g liver, the Kp [1, 5] was 62.8 and the Tmax [1, 5] was 8 h. For the same molecule, the Mice survived (P. berghei; 10 mg/kg PO, single dose day −1, 31 days, n = 5) was 2/5, the Blood parasitemia suppression (P. berghei; 10 mg/kg oral, single dose day −1) was “partial suppression of parasitemia” and the “IVIS signal during days 1 to 3” value (P. berghei; 10 mg/kg single dose day −1, pSVCTQ SC, TQ oral) was “completely suppressed”. The TD50 at 7 days [2] was 5 mg/kg, the “Median effective dose (dose that results in 50% huRBC loss by day 7 relative to vehicle control)” value (G6PD-deficient huRBCs) was 4.7 mg/kg and the “Hemolytic toxicity (decreases in hemoglobin and hematocrit)” value ([3]; 100-mg dose) was “did not produce hemotoxicity”. For the same molecule, the “Hemolytic toxicity (decreases in hemoglobin and hematocrit)” value ([3]; 300-mg dose) was “dose-limiting”.

For “p(GMA-co-SVATQMA) [tri-antennary GalNAc polymeric prodrug]”, the “Liver AUC drug exposure compared with the copolymer” value ([1]; SC 10 mg/kg dose, mice (fig. S15C)) was “equivalent to the copolymer”.

With “p(GalNAc-MA-co-SVCTQ-MA-co-RheMA) [rhodamine-labeled pSVCTQ]” the “Fluorescence in lungs, heart, spleen, and brain (IVIS)” value [4, 6] was “little fluorescence intensity”, the “Fluorescence in the kidneys (IVIS)” value [4, 6] was “low level of fluorescence” and the “Liver accumulation (IVIS fluorescence)” value [4, 6] was “accumulate in the liver with high selectivity”. The “Liver penetration / hepatocyte distribution (cross-sectional histology)” value ([4]; liver 8 hours after SC 25 mg/kg TQ equivalent) was “present in every hepatocyte”.

For p(GalNAc-MA-co-VCTQ-MA) [pVCTQ], the “Liver:plasma AUC ratio” value ([1]; 25 mg/kg, IV, mice) was 120, the “AUC, liver” value ([1]; TQ in liver, 25 mg/kg TQ equivalent, IV, mice, t = 0 to 336 hours) was 2725 μg/g liver*hour and the “Cmax, liver” value ([1]; TQ in liver, 25 mg/kg, IV, mice) was 48 μg/g liver.

For “p(GalNAc-co-MSEMA-co-SVCTQMA) [lower GalNAc polymeric prodrug design]”, the “PK properties compared with pSVCTQ” value ([1]; TQ in liver and plasma after SC 10 mg/kg dose, mice (fig. S15B)) was “preserved much of the PK properties”.
